{"source": "patent US20250222146A1", "about": "“Radiopharmaceuticals Targeting Somatostatin Receptor 2 and Uses Thereof” (RayzeBio, Inc., priority 2023, published 2025)", "note": "pKi: −log10 of the molar value. Numbered stars: 1 amine (or outer) side, 2 acyl side, 3 side chain; on linkers, the order of the positions; unused ones are H or OH. Square brackets hold non-standard residues; d marks the D form. Side chains are listed from the residue outwards. Peptide text beside a SMILES is read from it. * marks the point of attachment. ξ: configuration not given here. DOTA(Lu)NH(CH2)6NHCOCH2 = O=C(CN1CCN2CCN3CCN(CC1)CC(=O)[O][Lu]([O]C(=O)C2)[O]C(=O)C3)NCCCCCCNC(=O)C*; X6 = O=C(CN1CCN2CCN3CCN(CC1)CC(=O)[O][Lu]([O]C(=O)C2)[O]C(=O)C3)NCCOCCOCCOCCNC(=O)C*; DOTA(Lu) = O=C1CN2CCN3CCN(CC(=O)*)CCN(CC2)CC(=O)[O][Lu]([O]1)[O]C(=O)C3; Ala(piperidin-4-yl) = O=C([C@H](CC1CCN([*:3])CC1)N[*:1])[*:2]; dTrp(βS-Me) = C[C@@H](c1c[nH]c2ccccc12)[C@@H](N)C(=O)O; dTrp(5-Cl) = N[C@H](Cc1c[nH]c2ccc(Cl)cc12)C(=O)O; X20 = CN(C[C@H](N[*:1])C(=O)[*:2])c1ccccc1; dNMeW = CN[C@H](Cc1c[nH]c2ccccc12)C(=O)O; X2 = O=C([C@H](CCC1CNC1)N[*:1])[*:2]; Lys(5ξ-OH) = NCC(O)CC[C@H](N)C(=O)O; NMeLys(Me) = CNCCCC[C@H](NC)C(=O)O; NMeF = CN[C@@H](Cc1ccccc1)C(=O)O; 3Pal = N[C@@H](Cc1cccnc1)C(=O)O; 4Pal = N[C@@H](Cc1ccncc1)C(=O)O; ξThr(3R) = C[C@@H](O)C(N)C(=O)O; NMeOrn = CN[C@@H](CCCN)C(=O)O; NMehCys = CN[C@@H](CCS)C(=O)O; NMeK = CN[C@@H](CCCCN)C(=O)O; NMeDap = CN[C@@H](CN)C(=O)O; Ahx = NCCCCCC(=O)O", "data": [{"biological_target": "SSTR2 (Homo sapiens, UniProt P30874)", "sequence (P30874 whole entry)": "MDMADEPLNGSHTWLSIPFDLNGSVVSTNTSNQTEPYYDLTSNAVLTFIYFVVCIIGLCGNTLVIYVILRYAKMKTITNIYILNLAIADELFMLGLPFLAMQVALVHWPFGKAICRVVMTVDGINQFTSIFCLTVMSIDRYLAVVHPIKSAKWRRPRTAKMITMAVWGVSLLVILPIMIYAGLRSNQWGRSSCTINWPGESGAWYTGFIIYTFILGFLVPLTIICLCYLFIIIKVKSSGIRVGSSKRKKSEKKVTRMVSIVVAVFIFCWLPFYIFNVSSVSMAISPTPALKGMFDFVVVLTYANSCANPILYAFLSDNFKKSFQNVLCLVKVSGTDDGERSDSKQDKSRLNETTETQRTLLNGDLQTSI", "assay": "SSTR binding affinity by radioligand binding competition assay ([125I]-Tyr11-Somatostatin, membrane extracts)", "conditions": "radioligand competition, [125I]-Tyr11-Somatostatin 0.1 nM, membrane extracts; Ki from IC50 by Cheng Prusoff; read-out: SSTR2 Ki", "method": "(§1) Macrocyclic peptides in this invention were tested for binding to SSTR protein by a radioligand binding competition assay. For radioligand binding assay, competition binding is performed in duplicate in the wells of a 96 well plate containing binding buffer (HEPES 25 mM pH 7.4, MgCl2 5 mM, CaCl2 1 mM, BSA 0.5%, Saponine 10 μg/ml)), membrane extracts (0.6 μg protein/well), radiotracer ([125I]-Tyr11-Somatostatin, Perkin Elmer NEX389) and test compound. Nonspecific binding is determined by co-incubation with 200-fold excess of cold competitor (SST28). The samples are incubated in a final volume of 0.1 ml for 60 min at room temperature and then filtered over UniFilter-96 GF/C (Revvity 6055690) filter plates. Filters are washed six times with 0.5 ml of ice-cold washing buffer (HEPES 25 mM pH 7.4, MgCl2 5 mM, CaCl2 1 mM) and 50 μl of Microscint 20 (Packard) are added in each well. The plates are incubated 15 min on an orbital shaker and then counted with a TopCount™ for 1 min/well. For IC50 to Ki determination, the Cheng Prusoff equation is used: Ki=IC50/(1+ [tracer]/Kd). [Tracer] is 0.1 nM as mentioned above.", "values": [{"smiles": "CC(C)[C@@H]1NC(=O)[C@H](CCCCN)NC(=O)[C@@H](Cc2c[nH]c3ccccc23)NC(=O)[C@H](Cc2ccc(O)cc2)NC(=O)[C@H](CCSCC(=O)NCCCCCCNC(=O)CN2CCN3CCN4CCN(CC2)CC(=O)[O][Lu]([O]C(=O)C3)[O]C(=O)C4)N(C)C(=O)[C@H](CN(C)c2ccccc2)NC1=O", "note": "[RB-0004615] (cyclo(KV[X20][NMehCys](DOTA(Lu)NH(CH2)6NHCOCH2)Y[dW]))", "pKi": "> 9.00"}, {"smiles": "C[C@@H](O)[C@@H]1NC(=O)[C@H](CCCCN)NC(=O)[C@@H](Cc2c[nH]c3ccccc23)NC(=O)[C@H](Cc2ccc(O)cc2)NC(=O)[C@H](CCSCC(=O)NCCOCCOCCOCCNC(=O)CN2CCN3CCN4CCN(CC2)CC(=O)[O][Lu]([O]C(=O)C3)[O]C(=O)C4)N(C)C(=O)[C@H](COc2ccccc2)NC1=O", "note": "[RB-0005738]", "pKi": "> 9.00"}, {"smiles": "C[C@@H](O)C1NC(=O)[C@H](CCCCN)N(C)C(=O)[C@@H](Cc2c[nH]c3ccccc23)N(C)C(=O)[C@H](Cc2ccc(O)cc2)NC(=O)[C@H](CCSCC(=O)NCCCCCCNC(=O)CN2CCN3CCN4CCN(CC2)CC(=O)[O][Lu]([O]C(=O)C3)[O]C(=O)C4)N(C)C(=O)[C@H](Cc2ccccc2)N(C)C1=O", "note": "(stereo partly drawn) [RB-0004538] (cyclo([NMeF][NMehCys](DOTA(Lu)NH(CH2)6NHCOCH2)Y[dNMeW][NMeK][ξThr(3R)]))", "pKi": "8.00 to 8.48"}, {"smiles": "C[C@@H](O)[C@@H]1NC(=O)[C@H](CC2CCNCC2)NC(=O)[C@@H]([C@@H](C)c2c[nH]c3ccccc23)NC(=O)[C@H](Cc2ccc(O)cc2)NC(=O)[C@H](CCCCNC(=O)CNC(=O)CN2CCN3CCN4CCN(CC2)CC(=O)[O][Lu]([O]C(=O)C3)[O]C(=O)C4)N(C)C(=O)[C@H](Cc2ccccc2)NC1=O", "note": "[RB-0006397] (cyclo(F[NMeK]([Gly-DOTA(Lu)])Y[dTrp(βS-Me)][Ala(piperidin-4-yl)]T))", "pKi": "8.48 to 9.00"}, {"smiles": "CC(C)[C@@H]1NC(=O)[C@H](CCCCN)NC(=O)[C@@H](Cc2c[nH]c3ccccc23)NC(=O)[C@H](Cc2ccc(O)cc2)NC(=O)[C@H](CCCNC(=O)CCCCCNC(=O)CN2CCN3CCN4CCN(CC2)CC(=O)[O][Lu]([O]C(=O)C3)[O]C(=O)C4)N(C)C(=O)[C@H](Cc2ccccc2)NC1=O", "note": "[RB-0002672] (cyclo(F[NMeOrn]([Ahx-DOTA(Lu)])Y[dW]KV))", "pKi": "8.48 to 9.00"}, {"smiles": "C[C@@H](O)[C@@H]1NC(=O)[C@H](CCCCN)NC(=O)[C@@H](Cc2c[nH]c3ccccc23)NC(=O)[C@H](Cc2ccc(O)cc2)NC(=O)[C@H](CCCSCC(=O)NCCCCCCNC(=O)CN2CCN3CCN4CCN(CC2)CC(=O)[O][Lu]([O]C(=O)C3)[O]C(=O)C4)N(C)C(=O)[C@H](Cc2ccccc2)NC1=O", "note": "[RB-0003484]", "pKi": "> 9.00"}, {"smiles": "C[C@@H](O)[C@@H]1NC(=O)[C@H](CCC(O)CN)NC(=O)[C@@H](Cc2c[nH]c3ccccc23)NC(=O)[C@H](Cc2ccc(O)cc2)NC(=O)[C@H](CCSCC(=O)NCCCCCCNC(=O)CN2CCN3CCN4CCN(CC2)CC(=O)[O][Lu]([O]C(=O)C3)[O]C(=O)C4)N(C)C(=O)[C@H](Cc2ccccc2)NC1=O", "note": "(some centres unmarked) [RB-0006317] (cyclo(F[NMehCys](DOTA(Lu)NH(CH2)6NHCOCH2)Y[dW][Lys(5ξ-OH)]T))", "pKi": "> 9.00"}, {"smiles": "C[C@@H](O)[C@@H]1NC(=O)[C@H](CCCCN)NC(=O)[C@@H](Cc2c[nH]c3ccccc23)NC(=O)[C@H](Cc2ccc(O)cc2)NC(=O)[C@H](CCNC(=O)CCCCCNC(=O)CN2CCN3CCN4CCN(CC2)CC(=O)[O][Lu]([O]C(=O)C3)[O]C(=O)C4)N(C)C(=O)[C@H](Cc2ccccc2)NC1=O", "note": "[RB-0005717]", "pKi": "7.48 to 8.00"}, {"smiles": "C[C@@H](O)[C@@H]1NC(=O)[C@H](CC2CCNCC2)NC(=O)[C@@H](Cc2c[nH]c3ccc(Cl)cc23)NC(=O)[C@H](Cc2ccc(O)cc2)NC(=O)[C@H](CCSCC(=O)NCCCCCCNC(=O)CN2CCN3CCN4CCN(CC2)CC(=O)[O][Lu]([O]C(=O)C3)[O]C(=O)C4)N(C)C(=O)[C@H](Cc2ccccc2)NC1=O", "note": "[RB-0006075] (cyclo(F[NMehCys](DOTA(Lu)NH(CH2)6NHCOCH2)Y[dTrp(5-Cl)][Ala(piperidin-4-yl)]T))", "pKi": "8.48 to 9.00"}, {"smiles": "C[C@@H](O)[C@@H]1NC(=O)[C@H](CCCCN)NC(=O)[C@@H](Cc2c[nH]c3ccccc23)NC(=O)[C@H](Cc2ccncc2)NC(=O)[C@H](CCSCC(=O)NCCOCCOCCOCCNC(=O)CN2CCN3CCN4CCN(CC2)CC(=O)[O][Lu]([O]C(=O)C3)[O]C(=O)C4)N(C)C(=O)[C@H](Cc2ccccc2)NC1=O", "note": "[RB-0003504] (cyclo([4Pal][dW]KTF[NMehCys](X6)))", "pKi": "8.48 to 9.00"}, {"smiles": "C[C@@H](O)[C@@H]1NC(=O)[C@H](CC2CCNCC2)NC(=O)[C@@H]([C@@H](C)c2c[nH]c3ccccc23)NC(=O)[C@H](Cc2ccc(O)cc2)NC(=O)[C@H](CNC(=O)[C@H](CC(=O)O)NC(=O)CN2CCN3CCN4CCN(CC2)CC(=O)[O][Lu]([O]C(=O)C3)[O]C(=O)C4)N(C)C(=O)[C@H](Cc2ccccc2)NC1=O", "note": "[RB-0006160] (cyclo(F[NMeDap]([Asp-DOTA(Lu)])Y[dTrp(βS-Me)][Ala(piperidin-4-yl)]T))", "pKi": "7.48 to 8.00"}, {"smiles": "C[C@@H](O)[C@@H]1NC(=O)[C@H](CC2CCNCC2)NC(=O)[C@@H]([C@@H](C)c2c[nH]c3ccccc23)NC(=O)[C@H](Cc2ccc(O)cc2)NC(=O)[C@H](CCCCN(C)C(=O)CN2CCN3CCN4CCN(CC2)CC(=O)[O][Lu]([O]C(=O)C4)[O]C(=O)C3)N(C)C(=O)[C@H](Cc2ccccc2)NC1=O", "note": "[RB-0006579] (cyclo(F[NMeLys(Me)](DOTA(Lu))Y[dTrp(βS-Me)][Ala(piperidin-4-yl)]T))", "pKi": "8.00 to 8.48"}, {"smiles": "C[C@@H](O)[C@@H]1NC(=O)[C@H](CCC2CNC2)NC(=O)[C@@H]([C@@H](C)c2c[nH]c3ccccc23)NC(=O)[C@H](Cc2ccc(O)cc2)NC(=O)[C@H](CCCCNC(=O)CN2CCN3CCN4CCN(CC2)CC(=O)[O][Lu]([O]C(=O)C3)[O]C(=O)C4)N(C)C(=O)[C@H](Cc2ccccc2)NC1=O", "note": "[RB-0006128] (cyclo(F[NMeK](DOTA(Lu))Y[dTrp(βS-Me)][X2]T))", "pKi": "> 9.00"}, {"smiles": "C[C@H](O)[C@@H]1NC(=O)[C@H](CCCCN)NC(=O)[C@@H](Cc2c[nH]c3ccccc23)NC(=O)[C@H](Cc2ccc(O)cc2)NC(=O)[C@H](CCSCC(=O)NCCOCCOCCOCCNC(=O)CN2CCN3CCN4CCN(CC2)CC(=O)[O][Lu]([O]C(=O)C3)[O]C(=O)C4)N(C)C(=O)[C@H](Cc2ccccc2)NC1=O", "note": "[RB-0003357]", "pKi": "> 9.00"}, {"smiles": "CC(C)[C@@H]1NC(=O)[C@H](CCCCN)NC(=O)[C@@H](Cc2c[nH]c3ccccc23)NC(=O)[C@H](Cc2ccc(O)cc2)NC(=O)[C@H](CCSCC(=O)NCCCCCCNC(=O)CN2CCN3CCN4CCN(CC2)CC(=O)[O][Lu]([O]C(=O)C3)[O]C(=O)C4)N(C)C(=O)[C@H](CO)NC1=O", "note": "[RB-0005270] (cyclo(KVS[NMehCys](DOTA(Lu)NH(CH2)6NHCOCH2)Y[dW]))", "pKi": "> 9.00"}, {"smiles": "C[C@@H](O)[C@@H]1NC(=O)[C@H](CCCCN)NC(=O)[C@@H](Cc2c[nH]c3ccccc23)NC(=O)[C@H](Cc2cccnc2)NC(=O)[C@H](CCSCC(=O)NCCCCCCNC(=O)CN2CCN3CCN4CCN(CC2)CC(=O)[O][Lu]([O]C(=O)C3)[O]C(=O)C4)N(C)C(=O)[C@H](Cc2ccccc2)NC1=O", "note": "[RB-0003000] (cyclo([3Pal][dW]KTF[NMehCys](DOTA(Lu)NH(CH2)6NHCOCH2)))", "pKi": "> 9.00"}]}, {"biological_target": "SSTR2 (Homo sapiens, UniProt P30874)", "assay": "SSTR binding affinity by radioligand binding competition assay ([125I]-Tyr11-Somatostatin, membrane extracts)", "conditions": "read-out: SSTR2 Ki", "method": "as §1", "values": [{"smiles": "CC(C)[C@@H]1NC(=O)[C@H](CCCCN)NC(=O)[C@@H](Cc2ccc(NC(N)=O)cc2)NC(=O)[C@H](Cc2ccc(O)cc2)NC(=O)[C@H](C)N(C)C(=O)[C@H](Cc2ccccc2)NC1=O", "note": "[RB-0002328] (HELM PEPTIDE1{F.[meA].Y.[NC(=O)Nc1ccc(C[C@@H](N[*:1])C(=O)[*:2])cc1].K.V}$PEPTIDE1,PEPTIDE1,1:R1-6:R2$$$V2.0)", "pKi": "8.48 to 9.00"}]}]}
